Assay results: US20220326218A1, “COMPOSITION AND METHOD FOR INHIBITING BORC COMPLEX TO TREAT CANCERS WITH NF1 DEFICIENCY AND DYSREGULATED RAS SIGNALING” (THE TRUSTEES OF DARTMOUTH COLLEGE, priority 2019, published 2022)

What was measured:
U251-MG cells = experiment: alamarBlue assay, U251-MG; format: cell-based, human; conditions: up to 3 days, 20 μM to 0.039 μM
Protocol: Cells were plated at 5,000 cells/well in 96-well plates and allowed to adhere overnight. […] Cells were incubated for 72 h. 3 h prior to end of incubation, alamarBlue (Invitrogen) was added to a final concentration of 5% v/v. Fluorescence was read using a Spectramax M2 at an excitation of 544 nm and an emission of 590 nm, and fluorescence was normalized to DMSO. Each experiment contains 4 technical replicates.

erg6Δ yeast = experiment: Yeast dose response curves, control strains; format: cell-based, Saccharomyces cerevisiae; conditions: 30° C., 18 h, normalized to DMSO
Protocol: S. cerevisiae strains were plated at an OD600 of 0.05 in 96-well plates (Falcon) and treated with SC complete containing compound starting at 100 μM, followed by 2-fold serial dilutions to generate a 10-point range of concentrations normalized with DMSO; one row was treated with DMSO as a control. Yeast were incubated for 18 h. To process, the optical density was read using a Spectramax M2 (Molecular Devices) at a wavelength of 600 nm and normalized to DMSO. Each experiment was repeated 2-3 times with 4 technical replicates per experiment.
A high-throughput screen in Saccharomyces cerevisiae lacking a yeast homologue of NF1, IRA2 (ira2Δ) was developed and carried out to identify tool compounds that elicited synthetic lethality with NF1 loss (15). ira2Δ yeast have increased RAS-GTP, which results in increased MAPK and PKA signaling analogous to the pathways that are activated in NF1-deficient Schwann cells (17). […]
More than 5,100 structurally diverse compounds selected from and representative of a >340,000-compound library were screened. […] To determine whether Y102 was also effective in human tumor cells, the efficacy of Y102 was evaluated in two NF1-deficient human cancer cell line models of glioblastoma, U87-MG and U251-MG, and an NF1-deficient Neurofibromatosis type 1-associated MPNST cell line sNF96.2. […]

[1] = system: 8-hydroxyguanosine (8-OHG); experiment: Immunofluorescence staining for oxidative stress marker 8-OHG; format: cell-based, human; conditions: U87-MG, 2 μM, 24 h
Protocol: U87-MG cells were plated at a concentration of 50,000 cells/well onto precoated poly-D-lysine (PDL) coverslips (Neuvitro) in 24-well plates (Falcon) and allowed to adhere overnight. Medium was removed and replaced with treatment-laced media normalized to DMSO, and cells were treated for the indicated timepoints. At the time of collection, cells were washed with PBS and fixed with 4% paraformaldehyde without methanol (EMS) or 100% methanol (Fischer). Coverslips were washed with Tween20-containing PBS (PBST; Fischer). Following permeabilization with 0.5% Triton X-100 in PBS (Fischer), coverslips were blocked for 1 h at room temperature in IF Buffer (0.05% azide, 0.2% Triton X-100, 2% Normal Goat Serum or, for 8-OHG, Normal Donkey Serum). The following primary antibodies were used for 1 hour at room temperature unless specified: AlexaFluor 488 pre-conjugated anti-γ-H2AX (N1-431) mouse monoclonal (30 minutes; BD Biosciences), anti-cleaved caspase 3 (Asp175) rabbit polyclonal (Cell Signaling), anti-SQSTM1/p62 (D-3) mouse monoclonal (Santa Cruz), anti-8-Hydroxyguanosine goat polyclonal (1:200; Millipore), anti-LAMP1 (D4O1S) mouse monoclonal (O/N at 4° C.; Cell Signaling), anti-BNIP3L/Nix (D4R4B) rabbit monoclonal (O/N at 4° C.; Cell Signaling), anti-FLAG (M2) mouse monoclonal (2 hours at 37° C.; Sigma-Aldrich). […]

BNIP3L/Nix = experiment: qPCR of BNIP3L/Nix transcript; format: cell-based, human; conditions: U87-MG
proteasomal active sites = target: T1, proteasomal active sites (Homo sapiens, UniProt P28072+P28074+Q99436); experiment: MV-151 proteasome active site inhibition assay; format: cell-based; conditions: U87-MG; Y102 2 μM 24 h; positive control 1 μM Bortezomib and 10 μM MG-132 2 h
T1 construct: endogenous in cells; host or cells: U87-MG
Protocol: U87-MG cells were plated at 500,000 cells/well in 6-well plates and allowed to adhere overnight (Falcon). Medium was removed and replaced with fresh medium containing Y102 or vehicle DMSO and treated for 24 h. As a positive control, one well was treated for 2 h with 1 μM Bz/10 μM MG-132.
Cells were collected after treatment by washing with PBS, harvested with trypsin plus agitation to detach cells, spun down in a centrifuge, and resuspended in PBS to wash. Cells were transferred to 1.5 mL microcentrifuge tubes, pelleted, and resuspended in 20 μL digitonin lysis buffer (50 mM Tris HCl pH 7.5, 250 mM sucrose, 2 mM EDTA, 1 mM ATP, 1 mM DTT, and 0.05% digitonin). Cells were mixed by pipetting, incubated on ice for 20 minutes, and the lysate was cleared by centrifugation. Protein concentrations were determined using a Bradford protein assay (Bio-Rad). 10 μg of protein lysate was incubated for 20 minutes with 20 μM MV-151 in a 37° C. water bath. 4× loading dye was added to the samples and proteins were separated by sodium dodecyl sulfate-polyacrylamide gel electrophoresis (SDS-PAGE) on a 4-15% polyacrylamide gradient gel (Bio-Rad). Gel was imaged on a Typhoon scanner at an excitation of 532 nm and an emission of 560 nm to detect MV-151 fluorescence. Following imaging, proteins were transferred to nitrocellulose. The blot was probed for α-Tubulin as a loading control. […]

For Cn1cnnc1S/C=C/C(=O)c1ccc(F)cc1 [Y102], the “sensitivity of NF1-deficient cell line to treatment” value (U251-MG cells) was “sensitive”, the “effect on growth of control strains at concentrations inhibitory to erg6Δira2Δ yeast” value (erg6Δ yeast) was “no effect” and the “8-OHG compared to DMSO” value [1] was “increase”. The “localization of 8-OHG oxidative stress-induced damage” value [1] was “both nuclear and mitochondrial DNA”, the “BNIP3L/Nix RNA levels versus DMSO” value (BNIP3L/Nix) was “little difference” and the “inhibition of the proteasomal subunits (MV-151 competitive binding)” value (proteasomal active sites) was “not”.
